According to US20200129476A1, “PARP Inhibitor in Combination with a Glucocorticoid and/or Ascorbic Acid and/or a Protein Growth Factor for the Treatment of Impaired Wound Healing” (AKRIBES BIOMEDICAL GMBH, priority 2017, published 2020):
“Also recorded” adds a separate entry of the source.

Legend:
[1] = tested on: alpha-smooth muscle actin (α-SMA); assay: Immunolocalization of alpha-smooth muscle actin in 2D fibroblast culture (myofibroblast differentiation); format: cell-based, human
Procedure: Primary human dermal fibroblasts (HDF) were purchased from CELLnTEC, Bern. They were routinely grown in Dulbecco's modified Eagle's medium (DMEM) containing 10% FCS, 2 mM glutamine, and 100 U/ml penicillin/100 μg/ml streptomycin. Media, antibiotics, and glutamine were bought from Lonza. The cells were used at passage 5-15. Cells were trypsinized and seeded at 5000 cells/well in 200 μl into the inner wells of 96-well plates. The outer wells were loaded with sterile water. […] For control samples, 200p1 medium was added instead of specific stimuli. Alternatively, the cells were seeded into 384-well plates at 2500 cells/well directly together with test compounds or growth factors and WE or medium in a total volume of […].
After fixation with paraformaldehyde, the cells were incubated for 1 hour at room temperature with a monoclonal mouse-anti-human antibody against alpha-smooth muscle actin (α-SMA) from e-Bioscience, washed 3 times with PBS and developed with an Alexa Fluor-labelled donkey-anti-mouse IgG (Molecular Probes). The cells were washed 3 times with PBS and examined in a Zeiss ZEISS Observer.Z1 microscope, using the software AxioVision 48.

[2] = tested on: IL-1α; assay: Fibroblast-macrophage coculture with wound exudate: IL-1α; format: cell-based, human; conditions: WE #78; veliparib 10 μM, talazoparib 0.1 μM
Procedure: CD14^+ monocytes, isolated from PBMC of healthy donors by magnetic bead separation were incubated either alone or in the presence of primary human dermal fibroblasts (CelINTec) or fibroblast-derived matrices (FDM). FDM had been generated from primary human dermal fibroblasts by a 3-week incubation with the growth supplements vitamin C or insulin and EGF (vitamin C: 2-phospho-L-ascorbic acid trisodium salt, 100 μg/ml; human EGF, 5 ng/ml; human insulin, 5 μg/ml). Alternatively, fibroblast monolayer cultures can be used as well. After 4 days to a week to allow for macrophage differentiation in the presence or absence of M-CSF (25 ng/ml), the cultures were stimulated overnight with graded concentrations of test compounds in the absence or presence of various dilutions of sterile-filtered WE. IFN-g (50 ng/ml), LPS (100 ng/ml) and IL-4 (25 ng/ml) or combinations thereof served as controls for M1 and M2 macrophage induction. For negative control samples, medium was added instead of specific stimuli. WE were added to the culture medium for overnight stimulation at dilutions ranging from 1:25 to 1:100.
Supernatants were harvested and frozen for cytokine determination by ELISA, and cells were harvested and subjected to FACS analysis, gating on the monocyte population. Geometric means or mean fluorescence intensities (MFI) were used to quantify surface marker expression. […]

[3] = tested on: primary human dermal fibroblasts (HDF); assay: Fibroblast-derived matrix (FDM) formation assay (3D), with or without wound exudate; format: cell-based
Procedure: HDF cells were seeded at 5000 cells/well on day −3 into 96-well tissue culture plates (1250 cells/well for 384-well plates), which had been pre-coated for 1 hour at 37° C. with 0.2% gelatin solution (Sigma). When the cells reached confluence (=day 0), a matrix promoting supplement (vitamin C: 2-phospho-L-ascorbic acid trisodium salt, 100 μg/ml; Sigma) was added together with test samples containing PDGF-BB, TGF-ß1 or graded concentrations of compounds −/+WE as described for the HDF proliferation assay. After 4 days, medium was replaced by fresh vitamin C- and stimulus- as well as compound-containing medium, maintaining the conditions initiated on day 0. TGF-ß1 and PDGF-BB were included as positive controls to promote FDM formation and cell growth, respectively. After a total incubation time of 8 days, FDM production was measured in fixed cultures via SRB staining and evaluated as described above. In some cases, the experiment was stopped and evaluated already on day 4.
Low molecular weight compounds (see list in Table 1) were dissolved in DMSO (Bioreagent for cell culture, Sigma) at 10 mM or 100 mM and diluted at least 1:1000 in medium for cellular assays (final DMSO concentration ≤0.1%). Compounds were typically tested in half-logarithmic dilution series (1:3.33), starting at 10 μM or 100 μM as the highest compound concentration.
Cells were incubated with compounds for 72 hours in proliferation assays and up to 8 days for FDM assay (refreshed after 4 days). When compounds were tested for their effect on WE stimulation, the incubation of cells with compounds was started and ended simultaneously with WE-incubation.

[4] = tested on: macrophages; assay: Fibroblast-macrophage coculture with wound exudate: live cells in FACS CD45-gate; format: cell-based, human; conditions: WE #78
Procedure: CD14^+ monocytes, isolated from PBMC of healthy donors by magnetic bead separation were incubated either alone or in the presence of primary human dermal fibroblasts (CelINTec) or fibroblast-derived matrices (FDM). FDM had been generated from primary human dermal fibroblasts by a 3-week incubation with the growth supplements vitamin C or insulin and EGF (vitamin C: 2-phospho-L-ascorbic acid trisodium salt, 100 μg/ml; human EGF, 5 ng/ml; human insulin, 5 μg/ml). Alternatively, fibroblast monolayer cultures can be used as well. […]
Supernatants were harvested and frozen for cytokine determination by ELISA, and cells were harvested and subjected to FACS analysis, gating on the monocyte population. Geometric means or mean fluorescence intensities (MFI) were used to quantify surface marker expression.
Cells were harvested and resuspended in FACS buffer (PBS containing 2% FCS). […] Co-staining with CD45 eFluor (#506 69-0459-42) was used to distinguish macrophages from primary human fibroblasts when analyzed from co-cultures. After washing cells with FACS buffer, they were fixed with 1% paraformaldehyde in PBS and stored at 4° C. in the dark until data were acquired on a Gallios flow cytometer from Beckman Coulter and analyzed with the Kaluza analysis software 1.3.

C[C@]1(c2nc3c(C(N)=O)cccc3[nH]2)CCCN1 [veliparib, 2-((2R)-2-methylpyrrolidin-2-yl)-1H-benzimidazole-4-carboxamide]
staining for α-SMA ([1]; absence of WE, TGF-ß 20 ng/ml, veliparib 10 μM): has no effect; also recorded: had no effect
staining for α-SMA, veliparib in combination with TGF-ß ([1]; presence of WE #78, veliparib 10 μM + TGF-ß 20 ng/ml): more strongly stained cells than veliparib alone
IL-1α induced by wound exudate [2]: reduced
FDM formation, veliparib combined with glucocorticoid ([3]; WE #49, non-diabetic, non-immunosuppressed patient (FIG. 8)): could be enhanced with glucocorticoids in another non-diabetic and non-immunosuppressed patient, but not vice versa; also recorded: could be enhanced with glucocorticoids, but not vice versa
FDM formation, veliparib combined with glucocorticoid ([3]; WE #78, patient with diabetes, immunosuppression after kidney transplantation (FIG. 7)): enhances the effect of glucocorticoids
FDM formation, combination of veliparib with dexamethasone versus each alone ([3]; WE present, microscopy (FIG. 6)): even superior to each substance alone
fibroblast-derived matrix (FDM) formation ([3]; presence of WE #78 (FIG. 9)): strong positive effect
fibroblast-derived matrix (FDM/ECM) formation ([3]; presence of wound exudate, WE not specified (FIG. 6: microscopy)): “cleaned up” WE-induced fibroblast matrix inhibition
percentage of live cells in the FACS CD45-gate, veliparib with dexamethasone ([4]; veliparib 10 μM + dexamethasone 10 nM): further increased
percentage of live cells in the FACS CD45-gate ([4]; veliparib 10 μM or dexamethasone 10 nM alone): increased
